Assays:
[1] = test system: E. coli BW25113 cells; assay: Mother-machine microfluidics-microscopy single-cell assay; format: cell-based, Escherichia coli; settings: for coefficient of variation (CV) in the cell lengths / Lmean 3h (mean cell length normalized to initial cell length) / cell division during peptide treatment / survival fraction (fraction of wells hosting dividing cells after peptide treatment and overnight LB) / increase in cell length on average before cell death: 10 μM peptide; for coefficient of variation (CV) in the cell lengths: 3 h time point, susceptible cells, 20 cells from 2 repeats (bienA9: 5 cells, 1 experiment); for Lmean 3h (mean cell length normalized to initial cell length): 3 h time-point, mean ± std. dev.; for Lmean 3h (mean cell length normalized to initial cell length) / increase in cell length on average before cell death: susceptible cells killed before dividing; for No. of non-dividing survivors at the end of the experiments: 10 M [sic] peptide, cells that did not divide and did not stain with propidium iodide, out of 305–323 initial cells; for cell division during peptide treatment: 3 h, measured per well; for survival fraction (fraction of wells hosting dividing cells after peptide treatment and overnight LB): continuous flow 3 h, then LB overnight (17–18 h), stationary phase cells, mean ± std. dev. over 2 biological repeats
Excerpt: The “mother-machine” system (Fig. 1A) enables the physical confinement of individual bacteria in well-controlled microenvironments, where they can be sequentially exposed to nutrients, drugs or viability indicators and the responses studied using time-lapse microscopy[28]–[30]. This technology has been used extensively to study bacterial-drug interactions, using a range of conventional small-molecule antibiotics such as ampicillin, gentamicin, ciprofloxacin (amongst others)[28],[30]–[33], phages[34] as well as novel protein pseudocapsid based antibacterials. Briefly E. coli BW25113 cells were cultured overnight in Lysogeny Broth (LB) at 37 °C to stationary phase and injected into the mother-machine microfluidic device (see “Experimental section” and[28],[29],[31],[32]). We waited for the cells to populate the “wells” of the chip (Fig. 1), following which the trapped cells were challenged with a continuous flow of peptide (10 μM) for 3 h, with images taken hourly. After 3 h of treatment, the cells were provided with fresh LB to study survivors. Post overnight (O/N) LB treatment, dead staining was performed with propidium iodide (PI). Dead cells either lysed or took up PI and appeared bright under fluorescence illumination (Fig. 1B). […] However, the cells that were dividing at the end of the experiment were unambiguously alive. Therefore, we chose to use only these dividing cells in our quantitative analysis discussed below.
Thus, reaching a critical peptide length leads to increased antibacterial activity with the bienA peptides. […] For bienK10 and bienK11, the survival fractions were 56 ± 26% (204 wells, 305 cells) and 31 ± 18% (215 wells, 311 cells) respectively (Fig. 2B), markedly different from the bienA10 and bienA11 results (Fig. 2A). Thus for these bienK peptides, while some individual cells were killed by the peptides, a large number of other clonal relatives survived the exact same conditions, similar to the example shown in Fig. 1. […] Our results reveal important phenotypic variants seemingly oblivious to the effects of these polypeptide antibiotics that are able to grow and divide even during treatment, while their clonal relatives perish. We also observed similar trends when quantifying the cellular division rates in response to the peptides (Fig. 2C,D). […] Again, as with the survival fractions, this peptide length dependence was not observed for the cellular division rates with the bienK series (Fig. 2D).
The Escherichia coli (BW25113) cultures were prepared in 150 mL of Lysogeny Broth (LB; 10 g/L tryptone, 5 g/L yeast extract and 10 g/L NaCl, Melford) with shaking at 200 rpm and incubation at 37 °C overnight (drug dosage during experiments was typically performed around 19–20 h after starting the culture). Prior to seeding in the microfluidic chip, the OD (optical density) of the culture was measured, the cells spun down at 3220g for 5 min and the supernatant filtered twice (0.22 µm, Millipore); this twice filtered supernatant is hereafter referred to as “spent LB”. All OD measurements were carried out at 600 nm. The cell pellet was resuspended in spent LB at an approximate OD of 75; this concentrated stationary phase culture was used when seeding the microfluidic chip with bacteria. Note, the OD of 75 is a theoretical value—we measure the OD of the original stationary phase culture, and calculate the volume of spent LB that the cell pellet (post centrifugation) is to be resuspended in to achieve this OD. In practical terms, one simply needs to concentrate the culture to optimise the efficiency of cells entering the wells of the mother-machine microfluidic device within a 30 min timeframe. We also note that unlike most traditional bulk experiments, we chose to study cells initially seeded in the microfluidic device in stationary phase, in line with previous studies using this platform[30]–[32],[34]. […]

[2] = Single-GUV dye (HPTS) leakage assay, membranolytic activity; settings: for vesicle survival rate: continuous flow, after 7 h, PBS pH 7.4, mean ± std. dev., 2 independent repeats; for mode of action from time distribution of single-GUV leakage events: 5 and 10 μM peptide
Excerpt: Given this variability in the cellular responses to treatment, we hypothesized that cell-to-cell differences at the membrane level could underlie the observed heterogeneity in the bacterial responses to these novel peptides. We therefore used anionic giant unilamellar vesicles (GUVs) as highly controlled model membranes to study the membranolytic activity of the bienA and bienK peptides. The vesicles were produced in a microfluidic chip using octanol-assisted liposome assembly (OLA)[40] and made with a 3:1 mixture of 1,2-dioleoyl-sn-glycero-3-phosphocholine (DOPC) and 1,2-dioleoyl-sn-glycero-3- phospho-rac-(1-glycerol) sodium salt (DOPG) to mimic the anionic charge of bacterial membranes[27] (Fig. 4). We note that E. coli membranes are estimated to be ~ 20% PG, and that lipids of the inner membrane in particular contain a high proportion (over 95%) of phospholipids, similar to our phospholipid-based GUV models. The more complex E. coli outer membrane includes both phospholipids and glycolipids. […] In particular, in a direct comparison, AMP induced membrane permeabilisation was similar across GUVs and E. coli inner (cytoplasmic) membranes, albeit with some interesting dissimilarities in a few specific details. In our assay, the GUVs were formed encapsulating a membrane impermeable dye, HPTS (8-hydroxypyrene-1,3,6-trisulfonic acid) and immobilized using an array of physical traps; the peptide solution was then flowed over them using a continuous flow system.
Figure 4 Schematic of the integrated GUV production, trapping and perfusion platform. GUVs are produced using octanol-assisted liposome assembly at a 6-way junction as described elsewhere. Briefly, lipids dissolved in octanol (the “LO” phase) are brought together at the junction with inner aqueous (IA) and outer aqueous (OA) streams, leading to the production of GUVs hosting octanol droplets. The octanol droplets bud off the GUVs downstream. This mixture of GUVs and octanol droplets is distributed into an array of trapping chambers via a connector chip, which additionally facilitates the separation of the GUVs and octanol droplets (for details, please see Al Nahas et al. Lab Chip 2019[27]). The trapped vesicles contain the membrane-impermeable fluorescent dye HPTS. Post-trapping, the GUVs are subjected to a continuous flow of peptides, and the membranolytic efficacy of the peptides is determined by studying the leakage of the fluorescent dye from the interior of the GUVs via video fluorescence microscopy.
We have published detailed protocols for the design, fabrication and operation of the microfluidic device for immobilizing and testing thousands of individual GUVs, which can be found elsewhere[23],[27]. A detailed protocol for the octanol-assisted liposome assembly (OLA) technique of producing GUVs on chip is also available. Briefly, our platform facilitated three procedural steps integrated in a single device. First, the OLA[40] technique was used to prepare GUVs. Next, the GUVs were trapped downstream in arrays of hydrodynamic posts. Finally, the immobilized GUVs were perfused with the desired dose of a peptide. All lipids described in the text were purchased from Avanti Polar Lipids. The GUVs were prepared in sucrose solution (200 mM) with glycerol (15% v/v) in PBS (pH 7.4). The vesicles were formed encapsulating the fluorescent membrane-impermeable dye 8-hydroxypyrene-1,3,6-trisulfonic acid from Thermo Fisher (HPTS, 50 μM). The microfluidic platform was operated by two positive pressure-driven pump modules (MFCS-4C, Fluigent), and a single neMESYS syringe pump module for fluid manipulation. The trapped GUVs were continuously dosed with buffer solution loaded with 5 μM HPTS (as a tracer) and the peptide of interest at 5 or 10 μM concentrations (the stock peptide solutions were prepared in milliQ water as described previously). […]

Sequence | coefficient of variation (CV) in the cell lengths [1] | Lmean 3h (mean cell length normalized to initial cell length) [1] | No. of non-dividing survivors at the end of the experiments [1] | vesicle survival rate ([2]; 5 μM peptide) | vesicle survival rate ([2]; 10 μM peptide) | cell division during peptide treatment [1] | survival fraction (fraction of wells hosting dividing cells after peptide treatment and overnight LB) [1] | survival fraction (fraction of wells hosting dividing cells after peptide treatment and overnight LB) ([1]; listed as BienA9) | mode of action from time distribution of single-GUV leakage events [2] | increase in cell length on average before cell death [1] | vesicle survival rate ([2]; 10 μM peptide, listed as A10) | survival fraction (fraction of wells hosting dividing cells after peptide treatment and overnight LB) ([1]; listed as A11) | vesicle survival rate ([2]; 10 μM peptide, listed as A11)
RLLRLKLRLL [bienK10, ultrashort amphipathic helix peptide with binary encoding by arginine and leucine, lysine at the mutation position] | 47% | 2.0 ± 0.9 | 7 | 40 ± 7% | 48 ± 10% |  |  |  |  |  |  |  | 
RLLRLALRL [bienA9, ultrashort amphipathic helix peptide with binary encoding by arginine and leucine, alanine at the mutation position] | 17% | 0.9 ± 0.2 | 11 | 41 ± 3% | 19.9 ± 0.5% | did not | 65 ± 11% | over 50% | bimodal all-or-none mode |  |  |  | 
RLLRLALRLL [bienA10, ultrashort amphipathic helix peptide with binary encoding by arginine and leucine, alanine at the mutation position] | 16% | 1.2 ± 0.2 | 6 | 12 ± 2% | complete disruption of the entire vesicle population | immediately and uniformly arrested cell division | less than 5% |  | unimodal “graded” mode of action | 20% | 0% |  | 
RLLRLKLRL [bienK9, ultrashort amphipathic helix peptide with binary encoding by arginine and leucine, lysine at the mutation position] | 44% | 2.0 ± 0.9 | 13 | 41 ± 20% | 47 ± 7% |  |  |  |  |  |  |  | 
RLLRLALRLLR [bienA11, ultrashort amphipathic helix peptide with binary encoding by arginine and leucine, alanine at the mutation position] | 16% | 1.2 ± 0.2 | 24 | 1 ± 1% | complete disruption of the entire vesicle population | immediately and uniformly arrested cell division | less than 5% |  | unimodal “graded” mode of action | 20% |  | 0% | 0%
RLLRLKLRLLR [bienK11, ultrashort amphipathic helix peptide with binary encoding by arginine and leucine, lysine at the mutation position] | 48% | 1.8 ± 0.9 | 1 | 70 ± 13% | 78 ± 4% |  | 31 ± 18% |  |  |  |  |  | 

Source: article PMC8901753, “An ultrasensitive microfluidic approach reveals correlations between the physico-chemical and biological activity of experimental peptide antibiotics” (Scientific Reports, 2022)
